# Measurements: patent US12173088B2, “Anti-microbial peptides” (priority 2018, dated 2024)
# Peptide text beside a SMILES is read from it.
# Key:
# P. aeruginosa PAO1 = format: cell-based, Pseudomonas aeruginosa
# Protocol: (§1) The antibacterial activity of peptides was evaluated using a standard broth microdilution protocol with minor modifications as described (Mishra, et al. (2012) J. Am. Chem. Soc., 134:12426-12429). In brief, logarithmic phase bacterial cultures (i.e., optical density at 600 nm≈0.5) were diluted to OD600 0.001 and partitioned into a 96-well polystyrene microplate at 90 μL per well. After treatment with 10 μL of peptide solutions two fold diluted to various concentrations, microplates were incubated at 37° C. overnight and read on a ChroMate® 4300 Microplate Reader at 630 nm (GMI, Ramsey, MN). […] To study the influence of medium conditions on the antimicrobial activity of peptides against S. aureus USA300, up to 200 mM sodium chloride (NaCl), 2 mM of calcium chloride, 5-10% of human serum, mouse plasma, fluid, or supernatants of tissue homogenates were included into the assays.
# (§2) The bacterial strains used include the Gram-positive bacteria methicillin-resistant Staphylococcus aureus USA300, Enterococcus faecium V286-17 (VRE), S. aureus M838-17 (MRSA) and Gram-negative bacteria E. coli E423-17, E416-7 (ampC), P. aeruginosa E411-17, PA01, K. pneumoniae E406-17, ATCC13883, and A. baumannii B26-16. Bacteria were cultivated in tryptic soy broth (TSB) from BD Bioscience.
# (§3) The antibacterial activity of peptides was evaluated using a standard broth microdilution protocol with minor modifications (Mishra, et al. (2017) Acta Biomater., 49:316-328). In brief, logarithmic phase bacterial cultures (i.e., optical density at 600 nm≈0.5) were diluted to 0.001 OD and aliquoted 90 μL per well into a 96-well polystyrene microplate. Added 10 μL peptides per well with various concentrations, plates were incubated at 37° C., overnight. Post incubation the plates are read at 630 nm using a ChroMate® Microplate Reader (GMI). […] To study the influence of medium conditions on the antimicrobial activity of peptides against S. aureus USA300 at different pHs (6.8, 7.2, and 8.0), 150 mM sodium chloride (NaCl), 5-10% of human serum, mouse plasma, and peritoneal fluid were included into the assays.
# K. pneumoniae ATCC 13883 = format: cell-based, Klebsiella pneumoniae; settings: ATCC 13883
# Protocol: as §1, §2, §3
# [1] = tested on: human red blood cells (hRBCs); assay: Hemolytic assay; format: cell-based
# Protocol: Briefly, human red blood cells (hRBCs) were washed three times with phosphate buffer saline (PBS) and diluted to a 2% solution (v/v). After peptide treatment, incubation at 37° C. for one hour, and centrifugation at 5000 rpm for 10 minutes, aliquots of the supernatant were carefully transferred to a fresh 96-well microplate. The amount of hemoglobin released was measured at 545 nm. The percent lysis was calculated by assuming 100% release when human blood cells were treated with 2% Triton™ X-100, and 0% release when incubated with PBS buffer. The peptide concentration that caused 50% lysis of hRBCs is defined as HL50. The cell selectivity index (CSI) was calculated as the ratio between HL50 and MIC of the corresponding peptide against a select pathogenic species.
# Hemolytic assays of peptides were performed as described (Mishra, et al. (2017) Acta Biomater., 49:316-328). Briefly, human red blood cells (hRBCs) obtained from UNMC Blood Bank. The blood washed 3× with isotonic saline (0.9% NaCl) and diluted to 2% blood cells (v/v). Peptide horine and verine at various concentrations were added into the 2% blood cells and incubated at 37° C. for 1 hour. Post incubation the plates were spun at 2000 rpm for 10 minutes, aliquots of the supernatant were carefully transferred to a fresh 96-well microplate. The amount of cells lysed is proportional to the hemoglobin released and measured at 545 nm using a ChroMate® microplate reader. The percent lysis was calculated by assuming 100% release when human blood cells were treated with 1% Triton™ X-100, and 0% release when incubated with PBS. The peptide concentration that caused 50% lysis of hRBCs is defined as HL50.
# E. coli ATCC 25922 = format: cell-based, Escherichia coli; settings: ATCC 25922
# Protocol: as §1, §3
# S. aureus USA300 = assay: microbe, parasite or virus in culture; format: cell-based, Staphylococcus aureus; settings: USA300
# Excerpt: The bacterial strains used include the Gram-positive strains Staphylococcus aureus USA300 LAC, S. epidermidis 1457, and Bacillus subtilis 168, as well as the Gram-negative isolates Escherichia coli K12 and Acinetobacter baumannii B2367-12. Additional, drug resistance strains include Gram-positive Enterococcus faecium V286-17 (VRE) and S. aureus M838-17 (MRSA) and Gram-negative E. coli E423-17, E. coli E416-17 (ampC), and P. aeruginosa E411-17. Bacteria were cultivated in tryptic soy broth (TSB) (BD Bioscience, MD).
# as §1, §2, §3
SMILES,Activity against Pseudomonas aeruginosa PAO1 (P. aeruginosa PAO1),MIC P. aeruginosa PAO1 (P. aeruginosa PAO1) [µM],MIC K. pneumoniae (K. pneumoniae ATCC 13883) [µM],HL50 [1] [µM],MIC E. coli ATCC 25922 (E. coli ATCC 25922) [µM],MIC S. aureus USA 300 (S. aureus USA300) [µM],MIC K. pneumonia ATCC 13883 (K. pneumoniae ATCC 13883) [µM]
"CC(C)C[C@H](NC(=O)[C@H](CC(C)C)NC(=O)[C@H](CCCCN)NC(=O)CNC(=O)[C@H](CC(C)C)NC(=O)[C@H](CC(C)C)NC(=O)[C@H](CO)NC(=O)[C@H](CC(C)C)NC(=O)[C@H](CC(C)C)NC(=O)[C@H](CO)NC(=O)[C@H](CC(C)C)NC(=O)[C@H](C)NC(=O)CN)C(N)=O [DFT506, GALSLLSLLGKLL] (H-GALSLLSLLGKLL-NH2; N-terminus assumed)",active,12.5,6.2,4,3.1,0.78,
"CC(C)C[C@H](NC(=O)[C@H](CC(C)C)NC(=O)[C@H](CCCCN)NC(=O)CNC(=O)[C@H](CC(C)C)NC(=O)[C@H](CC(C)C)NC(=O)[C@H](CO)NC(=O)[C@H](CC(C)C)NC(=O)[C@H](CC(C)C)NC(=O)[C@H](CO)NC(=O)[C@H](C)NC(=O)[C@H](CC(C)C)NC(=O)CN)C(N)=O [DFT507, GLASLLSLLGKLL] (H-GLASLLSLLGKLL-NH2; N-terminus assumed)",,>25,>25,<3.1,>25,0.78,
"CC(C)C[C@H](NC(=O)[C@H](CC(C)C)NC(=O)[C@H](CCCCN)NC(=O)CNC(=O)[C@H](CC(C)C)NC(=O)[C@H](CC(C)C)NC(=O)[C@H](CO)NC(=O)[C@H](CC(C)C)NC(=O)[C@H](C)NC(=O)[C@H](CO)NC(=O)[C@H](CC(C)C)NC(=O)[C@H](CC(C)C)NC(=O)CN)C(N)=O [DFT508, GLLSALSLLGKLL] (H-GLLSALSLLGKLL-NH2; N-terminus assumed)",,>25,3.1,6,3.1,0.78,
"CC(C)C[C@H](NC(=O)[C@H](CC(C)C)NC(=O)[C@H](CCCCN)NC(=O)CNC(=O)[C@H](CC(C)C)NC(=O)[C@H](CC(C)C)NC(=O)[C@H](CO)NC(=O)[C@H](C)NC(=O)[C@H](CC(C)C)NC(=O)[C@H](CO)NC(=O)[C@H](CC(C)C)NC(=O)[C@H](CC(C)C)NC(=O)CN)C(N)=O [DFT509, GLLSLASLLGKLL] (H-GLLSLASLLGKLL-NH2; N-terminus assumed)",,6.2 to 12.5,3.1,4,1.5 to 3.1,0.78,
"CC(C)C[C@H](NC(=O)[C@H](CC(C)C)NC(=O)[C@H](CCCCN)NC(=O)CNC(=O)[C@H](CC(C)C)NC(=O)[C@H](C)NC(=O)[C@H](CO)NC(=O)[C@H](CC(C)C)NC(=O)[C@H](CC(C)C)NC(=O)[C@H](CO)NC(=O)[C@H](CC(C)C)NC(=O)[C@H](CC(C)C)NC(=O)CN)C(N)=O [DFT510, GLLSLLSALGKLL] (H-GLLSLLSALGKLL-NH2; N-terminus assumed)",,>25,>25,19,>25,1.56,
"CC(C)C[C@H](NC(=O)[C@H](CC(C)C)NC(=O)[C@H](CCCCN)NC(=O)CNC(=O)[C@H](C)NC(=O)[C@H](CC(C)C)NC(=O)[C@H](CO)NC(=O)[C@H](CC(C)C)NC(=O)[C@H](CC(C)C)NC(=O)[C@H](CO)NC(=O)[C@H](CC(C)C)NC(=O)[C@H](CC(C)C)NC(=O)CN)C(N)=O [DFT511, GLLSLLSLAGKLL] (H-GLLSLLSLAGKLL-NH2; N-terminus assumed)",active,12.5,3.1,14,3.1,0.78,
"CC(C)C[C@H](NC(=O)[C@H](C)NC(=O)[C@H](CCCCN)NC(=O)CNC(=O)[C@H](CC(C)C)NC(=O)[C@H](CC(C)C)NC(=O)[C@H](CO)NC(=O)[C@H](CC(C)C)NC(=O)[C@H](CC(C)C)NC(=O)[C@H](CO)NC(=O)[C@H](CC(C)C)NC(=O)[C@H](CC(C)C)NC(=O)CN)C(N)=O [DFT512, GLLSLLSLLGKAL] (H-GLLSLLSLLGKAL-NH2; N-terminus assumed)",,>25,3.1,4,3.1,0.78,
"CC[C@H](C)[C@H](NC(=O)[C@H](CCCNC(=N)N)NC(=O)[C@H](CCCNC(=N)N)NC(=O)[C@H](CC(C)C)NC(=O)[C@H](CCCNC(=N)N)NC(=O)[C@H](Cc1c[nH]c2ccccc12)NC(=O)[C@@H](N)Cc1c[nH]c2ccccc12)C(=O)N[C@@H](Cc1c[nH]c2ccccc12)C(N)=O [WW302, WWRLRRIW] (H-WWRLRRIW-NH2; N-terminus and C-terminus assumed)",,12.5,,>200,,,>25
"CC[C@H](C)[C@H](NC(=O)[C@H](CCCNC(=N)N)NC(=O)[C@H](CCCNC(=N)N)NC(=O)[C@H](CCCNC(=N)N)NC(=O)[C@H](Cc1c[nH]c2ccccc12)NC(=O)[C@H](Cc1c[nH]c2ccccc12)NC(=O)[C@@H](N)Cc1c[nH]c2ccccc12)C(=O)N[C@@H](Cc1c[nH]c2ccccc12)C(N)=O [WW303, WWWRRRIW] (H-WWWRRRIW-NH2; N-terminus and C-terminus assumed)",,25 to 50,,>200,,,>25
"CC[C@H](C)[C@H](NC(=O)[C@H](CCCNC(=N)N)NC(=O)[C@H](CCCNC(=N)N)NC(=O)[C@H](CC(C)C)NC(=O)[C@H](Cc1c[nH]c2ccccc12)NC(=O)[C@H](Cc1c[nH]c2ccccc12)NC(=O)[C@@H](N)Cc1c[nH]c2ccccc12)C(=O)N[C@@H](CCCNC(=N)N)C(N)=O [WW305, WWWLRRIR] (H-WWWLRRIR-NH2; N-terminus and C-terminus assumed)",,12.5,,>200,,,>25
